{"source": "patent US8227513B2", "about": "“Food composition for binding acetaldehyde in mouth and in digestive track, and method for the preparation of the composition” (Biohit Oyj, priority 2005, dated 2012)", "assay": "capability of cysteine to bind acetaldehyde from beers and yoghurts (gas chromatograph)", "details": "for acetaldehyde concentration after the treatment: incubated 5 min at room temperature", "experimental": "In the test, the capability of cysteine to bind acetaldehyde from light alcohol drinks and milk products, such as yoghurt, was examined. The amounts of acetaldehyde in four Finnish yoghurts and three beers were measured by means of a standardized method (Homann et al. 1997. High acetaldehyde levels in saliva after ethanol consumption: Methodological aspects and pathogenic implications. Carcinogenesis 18:1739-1743). The average acetaldehyde concentration (±SEM) in the beers was 146±30 μM. L-cysteine was added to the beers so that the final cysteine concentration of the product was 0 (the control), 0.1, 3 and 10 mM (i.e., 0 mg/l, 12.1 mg/l, 363 mg/l and 1210 mg/l); thereafter, the beers were incubated for 5 min at room temperature. Thereafter, the acetaldehyde contents were measured by means of a gas chromatograph. The acetaldehyde concentrations after the treatment were 146±30 μM, 133±32 μM, 26±9 μM and 10±3 μM, correspondingly. In the yoghurt, the acetaldehyde concentrations were 419±53 μM, on an average. L-cysteine was added so that the cysteine concentrations in the final product were 0 (the control), 0.1, 3 and 10 mM (i.e., 0 mg/l, 12.1 mg/l, 363 mg/l, and 1210 mg/l); thereafter, the yoghurts were incubated for 5 min at room temperature. The acetaldehyde concentrations after the treatment were 419±53 μM, 240±42 μM, 55±15 μM, and 15±2 μM.", "data": [{"smiles": "N[C@@H](CS)C(=O)O", "note": "[L-cysteine]", "values": [{"measurement": "acetaldehyde concentration after the treatment", "setting": "beers (control 146±30 μM), final cysteine concentration 0.1 mM (12.1 mg/l), mean ±SEM", "result": "133 ± 32", "unit": "µM"}, {"measurement": "acetaldehyde concentration after the treatment", "setting": "beers (control 146±30 μM), final cysteine concentration 3 mM (363 mg/l), mean ±SEM", "result": "26 ± 9", "unit": "µM"}, {"measurement": "acetaldehyde concentration after the treatment", "setting": "beers (control 146±30 μM), final cysteine concentration 10 mM (1210 mg/l), mean ±SEM", "result": "10 ± 3", "unit": "µM"}, {"measurement": "acetaldehyde in the products eliminated", "setting": "the products (beers and yoghurts), 3 mM of cysteine (363 mg/l)", "result": "over 80%"}, {"measurement": "acetaldehyde concentration after the treatment", "setting": "yoghurts (control 419±53 μM), cysteine concentration 0.1 mM (12.1 mg/l)", "result": "240 ± 42", "unit": "µM"}, {"measurement": "acetaldehyde concentration after the treatment", "setting": "yoghurts (control 419±53 μM), cysteine concentration 3 mM (363 mg/l)", "result": "55 ± 15", "unit": "µM"}, {"measurement": "acetaldehyde concentration after the treatment", "setting": "yoghurts (control 419±53 μM), cysteine concentration 10 mM (1210 mg/l)", "result": "15 ± 2", "unit": "µM"}]}]}
